# Experimental data: PMC11087268, “A folate inhibitor exploits metabolic differences in Pseudomonas aeruginosa for narrow-spectrum targeting” (Nature Microbiology, 2024)
# Values joined by “and” are separate entries in the source; they are usually repeats but may differ in a detail not shown here. Identical values can stand only once.
# Key:
# [1] = tested on: Escherichia coli NCM-3722; experiment: MIC against E. coli NCM-3722 in LB broth; format: cell-based; settings: NCM3722, 16 h, 37 °C, OD600
# Protocol: (§1) Overnight cultures were diluted 1:150 in LB broth and added to a 96-well plate. Antibiotics were serially diluted 1:2 and added to columns of the 96-well plate and grown at 37 °C with continuous shaking. Cell growth was measured using optical density at 600 nm (OD600). MIC assays were performed in either BioTek Synergy HT or Tecan InfiniteM200 Pro microplate readers.
# [2] = tested on: Staphylococcus epidermidis EGM-206; experiment: MIC against S. epidermidis EGM-206 in LB broth; format: cell-based; settings: EGM206, 16 h, 37 °C, OD600
# Protocol: as §1
# [3] = tested on: Klebsiella pneumoniae ATCC 438165; experiment: MIC against K. pneumoniae in LB broth; format: cell-based; settings: ATCC438165, 16 h, 37 °C, OD600
# Protocol: as §1
# [4] = tested on: P. aeruginosa PA14 nfxB mutants; experiment: MIC against fluorofolin-resistant PA14 nfxB mutants in liquid culture; format: cell-based; settings: Pseudomonas aeruginosa
# Protocol: as §1
# Resistant mutants were maintained as a frozen stock.
# [5] = target: T1, human DHFR (Homo sapiens, UniProt P00374); experiment: Human DHFR in vitro assay; format: biochemical; settings: for Normalized activity to no drug control: human DHFR
# T1 construct: purchased R&D Systems 8456-DR
# T1 sequence (P00374 1-187): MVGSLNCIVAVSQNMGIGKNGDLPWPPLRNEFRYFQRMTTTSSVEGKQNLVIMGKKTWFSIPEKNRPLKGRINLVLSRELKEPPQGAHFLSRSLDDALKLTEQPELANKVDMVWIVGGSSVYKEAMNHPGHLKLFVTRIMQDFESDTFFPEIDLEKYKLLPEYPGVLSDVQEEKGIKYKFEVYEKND
# [6] = tested on: P. aeruginosa PA14 folate metabolism (dUMP, AICAR, GAR); experiment: Metabolomics (LC–MS) of treated PA14; format: cell-based, Pseudomonas aeruginosa; settings: PA14, 15 min
# Protocol: Metabolites were extracted by vacuum filtering 15 ml of treated cells using 0.45 μm HNWP Millipore nylon membranes and placing the filters into an ice-cold quenching solution of 40:40:20 methanol:acetonitrile:H2O. Extracts were kept on dry ice for 1 h and centrifuged at 16,000 g for 1 h at 4 °C. The supernatant was kept at -80 °C until mass spectrometry analysis. Liquid chromatography-mass spectrometry (LC-MS) analysis of metabolites was performed on an Orbitrap Exploris 240 mass spectrometer coupled with hydrophilic interaction liquid chromatography (HILIC)[68]. […] Waters 196006724), with a gradient of solvent A (95 vol. % H2O, 5 vol. % acetonitrile, with 20 mM ammonium acetate and 20 mM ammonium hydroxide, pH 9.4) and solvent B (acetonitrile). Flow rate was 0.15 ml min^-1 and column temperature was set at 25 °C. […] Raw mass spectrometry data were converted to mzXML format by MSConvert (ProteoWizard). Pick-peaking was done on […].0.8.0, Elucidata).
# [7] = Haemolysis; format: cell-based, sheep; settings: sheep, defibrinated sheep red blood cells, 1 h, vs Triton X-100 100% lysis
# Protocol: (§2) Samples were treated at 37 °C with shaking for 1 h and then centrifuged. Supernatants were collected and absorbances were measured at 405 nm in a Tecan InfiniteM200 Pro microplate reader.
# [8] = tested on: sheep red blood cells; experiment: Haemolysis; format: cell-based; settings: biologically relevant concentrations
# Protocol: as §2
# [9] = Serum (plasma protein) binding; format: in vitro ADME
# Protocol: An initial t = 0 sample was collected. […] Serum binding parameters were determined as follows: • % Bound = 100% − % Unbound • logK = log(% Bound/100 − % Bound) • % Remaining = Area-ratio6h/Area-ratio0h × 100% • % Recovery was determined as (Area-ratiobuffer-chamber + Area-ratioplasma-chamber)/(Area-ratiototal sample) × 100
# [10] = tested on: K. pneumoniae; experiment: Growth with or without TMI supplementation and fluorofolin, K. pneumoniae; format: cell-based, Klebsiella pneumoniae; settings: fluorofolin 2X MIC
# Protocol: (§3) Where listed, growth media were prepared according manufacturer recommendations: LB broth and LB broth supplemented with 0.3 mM thymine (BD Biosciences 244610, Alfa Aesar A15879), 0.3 mM methionine (Sigma-Aldrich M9625), 0.3 mM inosine (EMD Millipore 4060), cation-adjusted Mueller–Hinton II broth (CAMHB) (BD 212322) or 0.3 mM thymidine (Sigma-Aldrich T1895), Gutnick minimal media (1.0 g l^−1 K2SO4, 13.5 g l^−1 K2HPO4, 4.7 g l^−1 KH2PO4, 0.1 g l^−1 MgSO4·7H2O, 10 mM NH4Cl as a nitrogen source and 0.4% w/v glucose as a carbon source)[65].
# (§4) Extended Data Fig. 3 TMI supplementation can also rescue other species from fluorofolin DHFR inhibition. […] (f) P. aeruginosa PA14 or E. coli lptd4213 treated with fluorofolin 50 μg/mL in the presence or absence of 0.3 mM thymidine. (g) E. coli lptd4213 treated with fluorofolin 50 μg/mL and SMX (78.1 μg/mL) in the presence or absence of 0.3 mM thymidine or 0.3 mM TMI supplementation, Curves represent average optical at 600 nm (OD600) of 2 biological replicates. Means are shown. Source data
# [11] = tested on: E. coli lptD4213; experiment: Growth of E. coli lptd4213 with fluorofolin (with or without SMX) and thymidine or TMI; format: cell-based, Escherichia coli; settings: fluorofolin 50 μg/mL, 0.3 mM thymidine
# Protocol: as §3, §4
# [12] = 2× MIC (fluorofolin 6.3, TMP 250 μg ml^−1), one value per replicate
# [13] = mouse plasma, 1 μM, 6 h, dialysis
smiles,measurement,setting,value
Nc1nc(N)c2c(ccc3c2ccn3Cc2ccnc(F)c2)n1 [fluorofolin],MIC,[1],0.312 µg/mL
same,MIC,[2],0.312 µg/mL
same,MIC,[3],6.25 µg/mL
same,MIC,[4],> 100 µg/mL
same,Normalized activity to no drug control,[5]; Fluorofolin 0.12207 nM,1.039
same,Normalized activity to no drug control,[5]; Fluorofolin 0.488281 nM,1.039
same,Normalized activity to no drug control,"[5]; Fluorofolin 1.95312 nM, replicates _1, _2",0.9215 and 1.02
same,Normalized activity to no drug control,"[5]; Fluorofolin 7.8125 nM, replicates _1, _2",0.5724 and 0.64
same,Normalized activity to no drug control,"[5]; Fluorofolin 31.25 nM, replicates _1, _2",0.387 and 0.4828
same,Normalized activity to no drug control,"[5]; Fluorofolin 125 nM, replicates _1, _2",0.2567 and 0.2221
same,Normalized activity to no drug control,"[5]; Fluorofolin 500 nM, replicates _1, _2",0.1373 and 0.1034
same,Normalized activity to no drug control,"[5]; Fluorofolin 2000 nM, replicates _1, _2",0.03994 and 0.01531
same,IC50,[5]; purified human DHFR,14 ± 4 nM
same,change of AICAR and dUMP,[6]; 2× MIC,significant upregulation
same,Normalized Ion Counts AICAR,[6]; [12],667209 and 798823 and 294672
same,Normalized Ion Counts GAR,[6]; [12],62925.5 and 135659 and 3851.78
same,Normalized Ion Counts dUMP,[6]; [12],5000000 and 3000000 and 2000000
same,"hemolysis at 1 h, 0.78125 ug/mL",[7]; 0.78125 ug/mL,0.966%
same,"hemolysis at 1 h, 1.5625 ug/mL",[7]; 1.5625 ug/mL,0.655%
same,"hemolysis at 1 h, 3.125 ug/mL",[7]; 3.125 ug/mL,-0.334%
same,"hemolysis at 1 h, 6.25 ug/mL",[7]; 6.25 ug/mL,0.353%
same,"hemolysis at 1 h, 12.5 ug/mL",[7]; 12.5 ug/mL,-0.799%
same,"hemolysis at 1 h, 25 ug/mL",[7]; 25 ug/mL,-0.239%
same,"hemolysis at 1 h, 50 ug/mL",[7]; 50 ug/mL,13.7%
same,permeabilization of red blood cell membranes,[8],did not cause significant permeabilization
same,% Bound,[9]; [13],71.7000%
same,% Recovery,[9]; [13],91.8800%
same,% Unbound,[9]; [13],28.3000%
same,"fraction unbound at 6 h, 1 μM","[9]; mouse plasma, 1 μM, 6 h, dialysis, read-out: % Bound (converted)",0.283
same,LogK,"[9]; mouse plasma, log(% Bound/(100 − % Bound))",0.4000
same,"recovery at 6 h, 1 μM","[9]; mouse, 1 μM, 6 h, dialysis",91.9%
same,"remaining at 6 h, 1 μM","[9]; mouse, read-out: % Remaining after 6 hours",89.7%
same,rescue of growth inhibition by TMI supplementation,[10],could also be rescued from fluorofolin growth inhibition by TMI supplementation
same,rescue of growth inhibition by thymidine supplementation alone,[11],Rescue from fluorofolin inhibition was also shown
